“Also recorded” adds a separate entry of the source.
What was measured:
[1] = system: A549 lung cancer xenograft tumor tissue; parameters: species or system SCID mice; settings: mouse, in vivo
[2] = system: MRC-5 human normal cells; type: cell-based
[3] = system: GM05757 human normal cells; type: cell-based
[4] = system: NIH:OVCAR-3 cisplatin-resistant human ovarian cancer cells; test: cells; type: cell-based
[5] = system: HeLa, ME-180, MDA-MB-231, A549 and NIH:OVCAR-3 cancer cells; test: cells; type: cell-based; settings: Homo sapiens, 72 h, read-out: IC50 against cancer cells
[6] = mouse, in vivo
[7] = mouse, in vivo; remark: listed apart in the source
[8] = system: NIH:OVCAR-3 ovarian cancer xenograft; parameters: species or system SCID mice; settings: mouse, in vivo
[9] = system: human normal cells (GM05757 and MRC-5); type: cell-based; settings: read-out: IC50 toward human normal cells
[10] = mouse, in vivo, cited from earlier work
[11] = system: MRC-5 human lung normal cells; type: cell-based; settings: read-out: IC50 (agent concentration to kill 50% of untreated cells), MRC-5

Row | Molecule | apoptosis in tumor tissue (TUNEL) vs untreated group [1] | caspase activation (apoptosis) in normal cells [2] | increase of the GSH level in normal cells [3] | IC50 ([4]; Homo sapiens, OVCAR-3, 72 h, read-out: IC50, NIH:OVCAR-3) [µM] | IC50 [5] [µM] | overall physical toxicity in mice [6] | acute toxicity in mice (hepatotoxicity, nephrotoxicity, electrolytes) [7] | cisplatin-resistant ovarian (NIH:OVCAR-3) tumor growth vs control [8] | IC50 [9] [µM] | activation of caspase-3 and -7 in MRC-5 normal cells [2] | NIH:OVCAR-3 cancer cells surviving high-dose treatment [4] | mean body weight compared to vehicle control ([10]; 2.3 mg/kg) | levels of blood urea nitrogen (BUN) ([10]; 15 mg/kg) | mice that died within 5 days ([10]; 15 mg/kg) | IC50 [11] [µM]
1 | Nc1cc(Br)c(Br)cc1N [FMD-2Br-DAB, 4,5-dibromo-1,2-phenylenediamine] | significant enhancement in apoptosis | negligible caspase activation | about 40% | 175 | 15 to 75 | no overall physical toxicity | no acute toxicity | – | – | – | – | – | – | – | –
2 | Nc1cc(I)c(I)cc1N [FMD-2I-DAB, 4,5-diiodo-1,2-phenylenediamine] | significant enhancement in apoptosis; also recorded: most effective inducer of apoptosis | negligible caspase activation | – | – | 15 to 75 | no overall physical toxicity | no acute toxicity | effectively suppressed | – | – | – | – | – | – | –
3 | cisplatin | – | – | – | – | – | – | – | – | ≤ 10 | significant activation | about 12% | significant decrease | significantly elevated | Half | ~6
